Laboratory results reported in paper PMC8789064, “High-Throughput-Methyl-Reading (HTMR) assay: a solution based on nucleotide methyl-binding proteins enables large-scale screening for DNA/RNA methyltransferases and demethylases” (Nucleic Acids Research, 2021).
Read-outs that look alike come from different tables or passages of the source.

How the values were obtained:
tri-MBD1 = molecular target: T1, tri-MBD1 (Homo sapiens, UniProt Q9UIS9); test: Counter screen: binding of methyl-binding protein tri-MBD1 without enzyme
T1 construct: Genes encoding tri-MBD1 (tandem three MBD1 1–105 ORF); made in house; host or cells: E. coli BL21(DE3) codon plus RIPL
T1 sequence (Q9UIS9 with tags, fused parts or gaps): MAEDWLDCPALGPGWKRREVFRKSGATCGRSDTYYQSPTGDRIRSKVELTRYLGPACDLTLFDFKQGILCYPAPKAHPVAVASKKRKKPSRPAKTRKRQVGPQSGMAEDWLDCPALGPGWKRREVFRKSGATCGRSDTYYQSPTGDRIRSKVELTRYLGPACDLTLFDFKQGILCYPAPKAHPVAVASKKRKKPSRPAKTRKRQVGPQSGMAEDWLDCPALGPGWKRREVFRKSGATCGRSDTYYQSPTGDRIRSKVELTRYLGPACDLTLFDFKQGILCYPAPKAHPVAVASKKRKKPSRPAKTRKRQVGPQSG
Excerpt: (§1) False-positive compounds should be abandoned during the high-throughput screening. […] This entails replacing half of the substrate oligonucleotide with product oligonucleotide in the absence of the enzyme and adding the methyl-binding protein into the wells. The FP signal can then be measured according to the above steps.
(§2) Finally, we performed high-throughput screening against DNMT1 and ALKBH5 for an in-house library of 2000 compounds. […] Half of the substrate oligonucleotide was replaced with the product (chemical synthetic) in the assay (the enzyme was removed), in which case the false-positive compounds would still influence the FP signal value while the true hits would not. […] We performed a cofactor-competitive assay to evaluate the biological activity and mechanism of action of hit compounds.

METTL3/14 = molecular target: T2, METTL3/14 (Homo sapiens, UniProt Q86U44); test: HTMR (FP-based) METTL3/METTL14 methylation assay; assay type: biochemical; settings: from IC50 vs SAM concentration line, Cheng-Prusoff
T2 construct: The full-length METTL3 and METTL14 plasmids were obtained from Professor Ping Yin; made in house; host or cells: E. coli BL21(DE3) codon plus RIPL
Method: (§3) To start the assay, the binding curve of the substrate oligonucleotide and the product oligonucleotide (chemical synthetic) were titrated to determine the proper concentration of methyl-binding proteins. The final NaCl conditions of DNMT1, TET2, METTL3/14 and ALKBH5 were 400, 300, 250 and 250 mM, respectively. The assays could be performed in 10 μl + 10 μl, 20 μl + 20 μl (as in this study), or other formats in a black 384-well plate (Corning #3575). The former is the reaction volume containing enzyme, oligonucleotide, and cofactors, while the latter is the volume of methyl-binding protein. The reaction was initiated by the addition of the enzymes or the substrates and terminated by the addition of methyl-binding proteins. The FP signals were then measured in fluorescence polarization standard mode by EnVision Multilabel Reader (PerkinElmer) after 10–15 min of incubation. The plate can be repeatedly measured. […] All data were analyzed in GraphPad Prism 7.0.
The enzymes, oligonucleotides, and cofactors were diluted in a reaction buffer containing 20 mM HEPES, pH 7.4, 1 mM DTT and 0.4 U/μl RNase inhibitor (BBI Life sciences). […] After 10–15 min of incubation, the plate was read by Envision (PerkinElmer).
(§4) All the curves were plotted in the Graphpad prism 7.0. And the IC50 values were determined by the log(inhibitor) versus response—variable slope (four parameters) model in Graphpad prism 7.0. […]

DNMT1 = molecular target: T3, DNMT1 (Homo sapiens, UniProt P26358); test: DNMT1 FP binding assay (DNA binding of the enzyme)
T3 construct: The human DNMT1 (351–1600) gene with N terminal 6xHis tag and a TEV cleavage site; 6xHis (N); TEV cleavage site (N); made in house; host or cells: Spodoptera frugiperda Sf9 (baculovirus)
Method: (§5) The FP binding assay of DNMT1 and METTL3/14 was performed in a buffer containing 20 mM HEPES, pH 7.4, and 1 mM DTT. The FP binding assay of TET2 and ALKBH5 was performed in the reaction buffer that removes the NaCl. At high concentrations of NaCl (over 100 mM), weak FP signals were detected for the enzymes.

DNMT1(351–1600) = molecular target: T4, DNMT1(351–1600) (Homo sapiens, UniProt P26358); test: HTMR (FP-based) DNMT1 methylation assay; assay type: biochemical
T4 construct: The human DNMT1 (351–1600) gene with N terminal 6xHis tag and a TEV cleavage site; 6xHis (N); TEV cleavage site (N); made in house; host or cells: Spodoptera frugiperda Sf9 (baculovirus)
Method: To start the assay, the binding curve of the substrate oligonucleotide and the product oligonucleotide (chemical synthetic) were titrated to determine the proper concentration of methyl-binding proteins. […] The assays could be performed in 10 μl + 10 μl, 20 μl + 20 μl (as in this study), or other formats in a black 384-well plate (Corning #3575). The former is the reaction volume containing enzyme, oligonucleotide, and cofactors, while the latter is the volume of methyl-binding protein. The reaction was initiated by the addition of the enzymes or the substrates and terminated by the addition of methyl-binding proteins. The FP signals were then measured in fluorescence polarization standard mode by EnVision Multilabel Reader (PerkinElmer) after 10–15 min of incubation. […] All data were analyzed in GraphPad Prism 7.0.
The reaction components (enzyme, oligonucleotide and cofactors) were diluted in a reaction buffer containing 20 mM HEPES, pH 7.4, 1 mM EDTA and 1 mM DTT. […] This was followed by incubation for 10–15 min at RT (room temperature), after which the plate was read by EnVision (PerkinElmer).

ALKBH5 [1] = molecular target: T5, ALKBH5 (Homo sapiens, UniProt Q6P6C2); test: ALKBH5 FP binding assay (RNA binding of the enzyme)
T5 construct: The untagged MBD1 (1–105) and ALKBH5 (66–292) catalytic domain genes were subcloned; made in house; host or cells: E. coli BL21(DE3) codon plus RIPL
Method: as §5

ALKBH5 [2] = molecular target: T5, ALKBH5; test: HTMR (FP-based) ALKBH5 demethylation assay; assay type: biochemical; settings: different concentrations of 2-OG
Method: as §3, with “The reaction was initiated by the addition of the enzymes or the substrates and terminated by the addition of methyl-binding proteins.” left out
The reaction buffer containing 20 mM HEPES, pH 7.4, 250 mM NaCl, 200 μM 2-OG, 300 μM ascorbic acid, and 50 μM […]. […] The plate can then be read immediately or after 10–15 min of incubation due to an equal concentration of NaCl. After this, the plate can be read by EnVision (PerkinElmer).
as §4

ALKBH5(66–292) [3] = molecular target: T6, ALKBH5(66–292) (Homo sapiens, UniProt Q6P6C2); test: NMR CPMG and STD experiments; assay type: binding; settings: 200 μM compound, 5 μM ALKBH5
T6 construct: The untagged MBD1 (1–105) and ALKBH5 (66–292) catalytic domain genes were subcloned; made in house; host or cells: E. coli BL21(DE3) codon plus RIPL
Method: Saturation transfer difference (STD) and Carr-Purcell-Meiboom-Gill (CPMG) experiments were performed to investigate the interaction between the compound and the protein, as previously described ([65]). All NMR spectra were acquired on a Bruker Avance III 600 MHz NMR spectrometer equipped with a cryoprobe (Bruker Biospin, Germany). The 5 μM ALKBH5(66–292) protein and 200 μM compound were dissolved into a phosphate buffer containing 20 mM NaH2PO4, 20 mM Na2HPO4, pH 7.4, 100 mM NaCl, 95% D2O, 5% DMSO-d6 and then used in NMR data acquisition. Transverse relaxation-edited spectra were recorded using the water-suppressed CPMG pulse sequence. Sixty-four transients were collected into 48 076 data points with a spectral width of 8.0 kHz and an acquisition time of 3.0 s. STD spectrum was recorded using the pulse sequence of stddiffgp19.3 with water suppression (3–9–19 WATERGATE). The on and off resonance excitation positions were defined at –0.17 and 33 ppm, respectively. The bandwidth for the saturation pulse was set to 42.4 Hz. One hundred and twenty-eight transients were collected into 32,768 data points with a spectral width of 9.6 kHz and an acquisition time of 1.71 s.

TET2 = molecular target: T7, TET2 (Homo sapiens, UniProt Q6N021); test: HTMR (FP-based) TET2 demethylation assay; assay type: biochemical
T7 construct: made in house; host or cells: E. coli BL21(DE3) codon plus RIPL
Method: To start the assay, the binding curve of the substrate oligonucleotide and the product oligonucleotide (chemical synthetic) were titrated to determine the proper concentration of methyl-binding proteins. […] The reaction was initiated by the addition of the enzymes or the substrates and terminated by the addition of methyl-binding proteins. The FP signals were then measured in fluorescence polarization standard mode by EnVision Multilabel Reader (PerkinElmer) after 10–15 min of incubation. […] Additionally, this experiment must avoid strong light exposure.
The reaction buffer containing 20 mM HEPES, pH 8.0, 100 mM NaCl, 1 mM DTT, 1 mM ATP, 1 mM 2-OG, 2 mM ascorbic acid and 100 μM Fe2(NH4)2(SO4)2. Fe^2+ is the last to be added. The reaction contained 40 nM TET2 and 20 nM FAM-labeled fully-methylated DNA occurred at 37°C for 60 min. Next, 20 μl tri-MBD1 (500 nM as final concentration) protein was diluted in 20 mM HEPES, pH 7.4, 500 mM NaCl and transferred into wells to end the reaction. After 10–15 min of incubation, the plate was read by Envision (PerkinElmer).

YTHDF1 = molecular target: T8, YTHDF1 (Homo sapiens, UniProt Q9BYJ9); test: Counter screen: binding of methyl-binding protein YTHDF1 without enzyme; settings: ALKBH5 assay format, enzyme removed
T8 construct: YTHDF1 (361–559), YTHDF2 (380–579) and YTHDC1 (355–492) were chemically synthesized; made in house; host or cells: E. coli BL21(DE3) codon plus RIPL
T8 sequence (Q9BYJ9 361-559): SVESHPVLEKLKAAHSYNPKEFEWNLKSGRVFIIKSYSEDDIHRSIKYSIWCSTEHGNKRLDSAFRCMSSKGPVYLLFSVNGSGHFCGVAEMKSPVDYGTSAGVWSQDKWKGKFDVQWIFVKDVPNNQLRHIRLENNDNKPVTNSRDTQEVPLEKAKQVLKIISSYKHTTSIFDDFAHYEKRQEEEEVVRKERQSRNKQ
Excerpt: as §1, §2

ALKBH5(66–292) [4] = molecular target: T6, ALKBH5(66–292); test: Thermal shift assay; assay type: binding; settings: 5 μM ALKBH5, 100 μM compound (molar ratio 1:20); read-out: Tm shift (ΔTm) of ALKBH5
Method: The thermal shift assay was performed with a QuantStudio 6 Flex real-time PCR machine (Applied Biosystems) with a buffer containing 20 mM HEPES, pH 7.4 and 100 mM NaCl. The final system was 20 μl, which contained 5 μM ALKBH5(66–292) protein, 1:1000 dilution of SYPRO Orange dye (purchased from Invitrogen, 5000× stock in DMSO), and DMSO or 100 μM compounds (final DMSO concentration was 0.1%). The samples were heated from 25 to 95°C (2.5°C/min). All samples were performed in triplicate and data were analyzed by Protein Thermal Shift Software version 1.3 (Applied Biosystems).

[5] = molecular target: T9, tri-MBD1 (GST-MBD1-MBD1-MBD1) (UniProt Q9UIS9 1-105); test: fluorescence polarization; 400 mM NaCl, 20 nM DNMT1 present; FP, 384-well; methyl readers at final NaCl 400 mM (DNMT1 assay), 300 mM (TET2), 250 mM (METTL3/14, ALKBH5), 10-15 min; DNMT1 and METTL3/14 binding in 20 mM HEPES pH 7.4, 1 mM DTT with varied NaCl; TET2 and ALKBH5 in reaction buffer without NaCl; temperature not stated; settings: protein: recombinant; tags: N-terminal GST (pGEX-6P-1); label: 5'-FAM top strand; blunt
T9 chain: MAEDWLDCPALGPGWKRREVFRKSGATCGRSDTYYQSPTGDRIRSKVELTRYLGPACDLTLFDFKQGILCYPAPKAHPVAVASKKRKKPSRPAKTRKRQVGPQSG

GST-YTHDF1 YTH domain = molecular target: T10, GST-YTHDF1 YTH domain (UniProt Q9BYJ9 361-559); test: fluorescence polarization; 250 mM NaCl; over 100-fold selectivity for m6A over unmodified RNA; FP, 384-well; methyl readers at final NaCl 400 mM (DNMT1 assay), 300 mM (TET2), 250 mM (METTL3/14, ALKBH5), 10-15 min; DNMT1 and METTL3/14 binding in 20 mM HEPES pH 7.4, 1 mM DTT with varied NaCl; TET2 and ALKBH5 in reaction buffer without NaCl; temperature not stated; settings: protein: recombinant; tags: N-terminal GST; label: 5'-FAM; single strand
T10 sequence: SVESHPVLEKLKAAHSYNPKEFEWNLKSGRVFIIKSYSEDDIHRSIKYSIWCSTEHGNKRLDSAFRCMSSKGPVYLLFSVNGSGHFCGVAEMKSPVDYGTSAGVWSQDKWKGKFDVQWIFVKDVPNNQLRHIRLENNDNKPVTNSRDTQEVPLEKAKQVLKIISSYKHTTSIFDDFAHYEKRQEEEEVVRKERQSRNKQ

T5 sequence (Q6P6C2 66-292): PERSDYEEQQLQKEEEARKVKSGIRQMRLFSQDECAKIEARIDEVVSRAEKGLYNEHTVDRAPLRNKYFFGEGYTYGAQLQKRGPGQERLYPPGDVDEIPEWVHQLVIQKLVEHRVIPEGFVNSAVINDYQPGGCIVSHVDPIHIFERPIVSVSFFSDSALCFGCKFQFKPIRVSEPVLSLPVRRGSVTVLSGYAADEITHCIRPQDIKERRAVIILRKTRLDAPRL
T3 sequence (P26358 351-1600): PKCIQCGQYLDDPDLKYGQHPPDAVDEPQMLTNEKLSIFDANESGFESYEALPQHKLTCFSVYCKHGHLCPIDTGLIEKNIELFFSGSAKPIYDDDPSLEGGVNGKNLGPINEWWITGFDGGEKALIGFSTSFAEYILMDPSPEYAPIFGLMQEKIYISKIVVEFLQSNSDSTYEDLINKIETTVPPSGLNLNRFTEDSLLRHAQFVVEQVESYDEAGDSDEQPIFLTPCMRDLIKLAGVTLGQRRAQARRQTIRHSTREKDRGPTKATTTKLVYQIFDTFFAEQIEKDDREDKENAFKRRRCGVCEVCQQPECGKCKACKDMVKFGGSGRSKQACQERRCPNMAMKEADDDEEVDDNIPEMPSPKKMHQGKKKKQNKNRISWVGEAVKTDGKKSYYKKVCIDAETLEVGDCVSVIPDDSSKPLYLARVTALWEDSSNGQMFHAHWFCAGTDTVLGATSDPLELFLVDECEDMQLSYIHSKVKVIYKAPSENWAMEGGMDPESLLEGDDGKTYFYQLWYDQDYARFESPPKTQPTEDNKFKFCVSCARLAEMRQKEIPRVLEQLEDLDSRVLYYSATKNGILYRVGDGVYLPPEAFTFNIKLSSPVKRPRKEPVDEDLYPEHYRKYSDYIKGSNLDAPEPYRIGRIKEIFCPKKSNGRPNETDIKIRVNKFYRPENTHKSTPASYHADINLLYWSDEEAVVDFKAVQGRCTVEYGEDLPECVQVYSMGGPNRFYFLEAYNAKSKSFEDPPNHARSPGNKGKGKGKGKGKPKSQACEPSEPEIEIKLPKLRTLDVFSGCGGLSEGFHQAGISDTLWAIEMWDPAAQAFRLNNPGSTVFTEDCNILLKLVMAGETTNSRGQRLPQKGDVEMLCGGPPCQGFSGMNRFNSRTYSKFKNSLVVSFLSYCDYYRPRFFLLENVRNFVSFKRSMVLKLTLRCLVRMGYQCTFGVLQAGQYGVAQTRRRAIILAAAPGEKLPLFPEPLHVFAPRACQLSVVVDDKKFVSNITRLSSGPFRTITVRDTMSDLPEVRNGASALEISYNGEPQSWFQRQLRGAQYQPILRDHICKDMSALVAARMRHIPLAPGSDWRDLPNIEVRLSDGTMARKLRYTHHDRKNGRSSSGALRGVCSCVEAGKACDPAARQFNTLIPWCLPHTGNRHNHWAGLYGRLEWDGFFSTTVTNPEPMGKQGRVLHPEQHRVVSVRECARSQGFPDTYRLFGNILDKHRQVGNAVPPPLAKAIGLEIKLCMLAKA
T4 sequence (P26358 351-1600): as above
T6 sequence (Q6P6C2 66-292): as the sequence (Q6P6C2 66-292) above
T2 sequence (Q86U44 whole entry): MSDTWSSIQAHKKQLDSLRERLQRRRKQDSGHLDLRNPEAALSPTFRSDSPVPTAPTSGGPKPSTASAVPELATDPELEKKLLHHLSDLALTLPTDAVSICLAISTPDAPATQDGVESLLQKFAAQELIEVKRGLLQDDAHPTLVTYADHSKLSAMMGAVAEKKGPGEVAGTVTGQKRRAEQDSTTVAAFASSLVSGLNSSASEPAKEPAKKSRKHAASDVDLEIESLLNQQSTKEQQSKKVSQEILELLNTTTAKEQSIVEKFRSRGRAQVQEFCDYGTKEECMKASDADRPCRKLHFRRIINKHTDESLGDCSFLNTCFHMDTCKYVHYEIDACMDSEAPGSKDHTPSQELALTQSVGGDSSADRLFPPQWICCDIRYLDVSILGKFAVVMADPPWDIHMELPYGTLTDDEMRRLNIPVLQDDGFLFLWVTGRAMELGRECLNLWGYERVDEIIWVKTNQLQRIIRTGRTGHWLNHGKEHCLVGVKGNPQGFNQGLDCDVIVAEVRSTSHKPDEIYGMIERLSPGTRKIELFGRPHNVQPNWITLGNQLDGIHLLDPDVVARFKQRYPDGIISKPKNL

O=C(O)c1ccc(O)c2ncccc12 [IOX1, reference compound]
Effect on binding of tri-MBD1 (tri-MBD1; high concentration (over 50 μM)): can inhibit the binding of tri-MBD1

Nc1ncnc2c1ncn2[C@@H]1O[C@H](CSCC[C@H](N)C(=O)O)[C@@H](O)[C@H]1O [SAH]
Ki (METTL3/14): 2.06 ± 2.8 µM

O=c1oc2c(O)c(O)cc3c(=O)oc4c(O)c(O)cc1c4c23 [ellagic acid]
Effect on DNA binding of DNMT1 (DNMT1): competed with the binding of DNA | Effect on DNA binding of DNMT1 (DNMT1; listed as Ellagic acid): disturbed the DNA-DNMT1 | Mechanism with respect to cofactor SAM (DNMT1(351–1600); cofactor-competitive assay, increasing SAM): SAM-noncompetitive | IC50 (DNMT1(351–1600); different concentrations of SAM, read-out: IC50 against DNMT1): ~67 µM | Interference with the assay (counter screen) (tri-MBD1; DNMT1 assay format, enzyme removed): didn’t interference the assay

O=c1c(O)c(-c2ccc(O)c(O)c2)oc2cc(O)cc(O)c12 [quercetin]
Effect on RNA binding of ALKBH5 (ALKBH5 [1]): did not affect the RNA binding of ALKBH5 | Effect on RNA binding of ALKBH5 (ALKBH5 [1]; listed as Quercetin): didn’t affect the RNA binding | Change of IC50 in the ALKBH5 reaction with 2-OG concentration (ALKBH5 [2]): did not significantly change | Direct binding to ALKBH5 catalytic domain (CPMG, STD) (ALKBH5(66–292) [3]): strongly bound | Activity during the TET2 demethylation reaction (TET2): high activity | Interference with the assay (counter screen) (YTHDF1): didn’t interference the assay | ΔTm at 100 µM (ALKBH5(66–292) [4]): 2.57 °C

B1: fully-methylated DNA [M/M] (dsDNA)
DNA 1: TACGACCAGGAT
DNA 2: ATCCTGGTCGTA
modifications: 5mC at position 3 of top strand and position 9 of bottom strand
binding result [5]: binds

GAACCGGACUGUCUUA (ssRNA, m6A at position 8) [m6A-modified RNA]
binding result (GST-YTHDF1 YTH domain): binds
